According to patent publication US8501940B2, “Tetrahydrocinnoline derivatives” (Hoffmann-La Roche Inc., priority 2008, dated 2013):

What follows are compounds tested against T1, human 11beta-HSD1 (Homo sapiens, UniProt P28845) (assay: Microsome assay (cortisone to cortisol conversion, ELISA detection)). Details: microsomes from HEK293 cells transiently expressing human 11beta-HSD1; Cortisone 50-200 nM, NADPH 1 mM; 60 min at 37° C.; cortisol by ELISA; read-out: h 11-beta-HSD 1 IC50.
T1 construct: made in house; host or cells: HEK293 cells (ATCC CRL-1573), transient transfection with a pcDNA3 construct; microsomal fraction used
T1 sequence (P28845 whole entry): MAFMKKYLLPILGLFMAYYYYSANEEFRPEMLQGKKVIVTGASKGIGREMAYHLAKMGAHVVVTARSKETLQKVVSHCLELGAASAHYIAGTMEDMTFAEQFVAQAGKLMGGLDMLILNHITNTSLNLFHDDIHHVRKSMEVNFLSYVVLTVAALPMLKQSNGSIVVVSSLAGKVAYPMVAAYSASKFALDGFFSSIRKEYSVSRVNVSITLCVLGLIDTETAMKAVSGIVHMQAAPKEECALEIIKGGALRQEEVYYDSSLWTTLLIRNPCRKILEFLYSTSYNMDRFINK
Type: biochemical
Description: The cDNA encoding the human 11beta-HSD1 protein was cloned into the expression vector pcDNA3 (Stratagene). This construct (for details see Alex Odermatt et al.; J Biol Chem., 1999, Vol. 274, Issue 40, 28762-28770) was used to transiently express the protein in HEK293 cells (ATCC number: CRL-1573, described in Graham, F. L., Smiley, J., Russell, W. C., Nairn, R.; (1977)) using lipofectamine. 48 h after transfection cells were washed twice with ice-cold PBS (Phosphate buffered Saline). To 1 volume of cell suspension in PBS 2 volumes of ice-cold lysis buffer (50 mM Tris; pH7.5; 1 mM EDTA; 100 mM NaCl) were added. The cells were lysed by Potter-homogenization (20 strokes). The resulting homogenate was sonicated with a tip sonicator (10% output; 2×30 sec.) and cleared by a low speed centrifugation (10 min×9000 g; 4° C.). The microsomal fraction was collected by a high speed centrifugation (60 min×110,000 g). The resulting pellet was resuspended in storage buffer (20 mM Tris pH 7.5; 1 mM EDTA; 10% Glycerol) and the centrifugation was repeated. The resulting pellet containing the microsomal fraction was again taken up into storage buffer and aliquots were kept frozen in liquid Nitrogen until use.
Microsomes isolated from HEK293 cells transiently expressing human 11beta-HSD1 (for details see above) were incubated in assay buffer (100 mM NaCl; 1 mM EDTA; 1 mM EGTA; 1 mM MgCl; 250 mM Sucrose; 20 mM Tris pH 7.4; Cortisone 50-200 nM and NADPH 1 mM) together with different concentrations of test substances. After 60 min. of incubation at 37° C. the assay was stopped by heating to 80° C. (5 min.) and by addition of the inhibitor Carbenoxolone (1 uM). The amount of Cortisol produced in this assay was determined using a commercially available, ELISA-based Cortisol-detection kit (Distributed by Assay Design, Inc.). Inhibitors were characterized by there IC50 values, e.g. the concentration at which the production of cortisol was 50% reduced.
CC1(Cc2cc3c(nn2)[C@H]2CC[C@@H]3C2(C)C)CC1 (racemic) [Example 16, (5RS,8SR)-9,9-dimethyl-3-[(1-methylcyclopropyl)methyl]-5,6,7,8-tetrahydro-5,8-methanocinnoline] showed an IC50 of 1 pM. Compound CC1(Cc2cc3c(nn2)[C@H]2CC[C@@H]3C2)CC1 (racemic) [Example 18, (5RS,8SR)-3-[(1-methylcyclopropyl)methyl]-5,6,7,8-tetrahydro-5,8-methanocinnoline] has an IC50 of 37 pM. With CC(C)(C)Cc1cc2c(nn1)C1CCC2C12CC2 (single isomer, unassigned) [Example 1b, (5′S,8′R)-3′-(2,2-dimethylpropyl)-5′,6′,7′,8′-tetrahydrospiro[cyclopropane-1,9′-[1′,2′]diaza[5′,8′]methanocinnoline]] the IC50 was 1 pM. Compound CC(C)(C)c1cc2c(nn1)C1CCC2C12CC2 (single isomer, unassigned) [Example 2a, (5′R,8′S)-3′-tert-butyl-5′,6′,7′,8′-tetrahydrospiro[cyclopropane-1,9′-[1′,2′]diaza[5′,8′]methanocinnoline]] has an IC50 of 11 pM. Work on CC(C)(C)c1cc2c(nn1)C1CCC2C12CC2 (single isomer, unassigned) [Example 2b, (5′S,8′R)-3′-tert-butyl-5′,6′,7′,8′-tetrahydrospiro[cyclopropane-1,9′-[1′,2′]diaza[5′,8′]methanocinnoline]] yielded an IC50 of 13 pM. c1c(C2CC2)nnc2c1C1CCC2C12CC2 (single isomer, unassigned) [Example 5a, (5′R,8′S)-3′-cyclopropyl-5′,6′,7′,8′-tetrahydrospiro[cyclopropane-1,9′-[1′,2′]diaza[5′,8′]methanocinnoline]] gave an IC50 of 566 pM. CC(C)(C)Cc1cc2c(nn1)C1CCC2C12CC2 (stereo not drawn) [Example 1, (5′RS,8′SR)-3′-(2,2-dimethylpropyl)-5′,6′,7′,8′-tetrahydrospiro[cyclopropane-1,9′-[1′,2′]diaza[5′,8′]methanocinnoline]] showed an IC50 of 3 pM. With CC(C)(C)Cc1cc2c(nn1)[C@H]1CC[C@@H]2C12CC2 [Example 1a, (5′R,8′S)-3′-(2,2-dimethylpropyl)-5′,6′,7′,8′-tetrahydrospiro[cyclopropane-1,9′-[1′,2′]diaza[5′,8′]methanocinnoline]] the IC50 was 4 pM. CC(C)(C)c1cc2c(nn1)C1CCC2C12CC2 (stereo not drawn) [Example 2, (5′RS,8′SR)-3′-tert-butyl-5′,6′,7′,8′-tetrahydrospiro[cyclopropane-1,9′-[1′,2′]diaza[5′,8′]methanocinnoline]] was tested, and the IC50 was 20 pM. In the case of CC1(Cc2cc3c(nn2)C2CCC3C23CC3)CC1 (stereo not drawn) [Example 3, (5′RS,8′SR)-3′-[(1-methylcyclopropyl)methyl]-5′,6′,7′,8′-tetrahydrospiro[cyclopropane-1,9′-[1′,2′]diaza[5′,8′]methanocinnoline]], the IC50 is reported as 6 pM. CC1(c2cc3c(nn2)C2CCC3C23CC3)CC1 (stereo not drawn) [Example 4, (5′RS,8′SR)-3′-(1-methylcyclopropyl)-5′,6′,7′,8′-tetrahydrospiro[cyclopropane-1,9′-[1′,2′]diaza[5′,8′]methanocinnoline]] gave an IC50 of 58 pM. For c1c(C2CC2)nnc2c1C1CCC2C12CC2 (stereo not drawn) [Example 5, (5′RS,8′SR)-3′-cyclopropyl-5′,6′,7′,8′-tetrahydrospiro[cyclopropane-1,9′-[1′,2′]diaza[5′,8′]methanocinnoline]], the IC50 was 603 pM. Work on c1c(C2CC2)nnc2c1[C@H]1CC[C@@H]2C12CC2 [Example 5b, (5′S,8′R)-3′-cyclopropyl-5′,6′,7′,8′-tetrahydrospiro[cyclopropane-1,9′-[1′,2′]diaza[5′,8′]methanocinnoline]] yielded an IC50 of 382 pM. With Cc1c(C2CC2)nnc2c1C1CCC2C12CC2 (stereo not drawn) [Example 6, (5′RS,8′SR)-3′-cyclopropyl-4′-methyl-5′,6′,7′,8′-tetrahydrospiro[cyclopropane-1,9′-[1′,2′]diaza[5′,8′]methanocinnoline]] the IC50 was 35 pM. For c1c(C2CC2)nnc2c1C1CCC2CC1 [Example 7, 3-Cyclopropyl-5,6,7,8-tetrahydro-5,8-ethanocinnoline], the IC50 was 47 pM. In the case of CC1(Cc2cc3c(nn2)C2CCC3CC2)CC1 [Example 8, 3-[(1-Methylcyclopropyl)methyl]-5,6,7,8-tetrahydro-5,8-ethanocinnoline], the IC50 is reported as 6 pM. CC(C)(C)Cc1cc2c(nn1)C1CCC2CC1 [Example 9, 3-(2,2-Dimethylpropyl)-5,6,7,8-tetrahydro-5,8-ethanocinnoline] showed an IC50 of 1 pM. CC(C)(C)c1cc2c(nn1)C1CCC2CC1 [Example 10, 3-Tert-butyl-5,6,7,8-tetrahydro-5,8-ethanocinnoline] showed an IC50 of 2 pM. CC1(c2cc3c(nn2)C2CCC3C23CCCC3)CC1 (stereo not drawn) [Example 11, (5′RS,8′SR)-3′-(1-methylcyclopropyl)-5′,6′,7′,8′-tetrahydrospiro[cyclopentane-1,9′-[1′,2′]diaza[5′,8′]methanocinnoline]] was tested, and the IC50 was 2 pM. CC1(Cc2cc3c(nn2)C2CCC3C23CCCC3)CC1 (stereo not drawn) [Example 12, (5′RS,8′SR)-3′-[(1-methylcyclopropyl)methyl]-5′,6′,7′,8′-tetrahydrospiro[cyclopentane-1,9′-[1′,2′]diaza[5′,8′]methanocinnoline]] showed an IC50 of 1 pM. For CC(C)(C)Cc1cc2c(nn1)C1CCC2C12CCCC2 (stereo not drawn) [Example 13, (5′RS,8′SR)-3′-(2,2-dimethylpropyl)-5′,6′,7′,8′-tetrahydrospiro[cyclopentane-1,9′-[1′,2′]diaza[5′,8′]methanocinnoline]], the IC50 was 1 pM. For CC(C)(C)c1cc2c(nn1)C1CCC2C12CCCC2 (stereo not drawn) [Example 14, (5′RS,8′SR)-3′-tert-butyl-5′,6′,7′,8′-tetrahydrospiro[cyclopentane-1,9′-[1′,2′]diaza[5′,8′]methanocinnoline]], the IC50 was 2 pM. c1c(C2CC2)nnc2c1C1CCC2C12CCCC2 (stereo not drawn) [Example 15, (5′RS,8′SR)-3′-cyclopropyl-5′,6′,7′,8′-tetrahydrospiro[cyclopentane-1,9′-[1′,2′]diaza[5′,8′]methanocinnoline]] showed an IC50 of 13 pM. For CC1(Cc2cc3c(nn2)[C@@]2(C)CC[C@@H]3C2(C)C)CC1 [Example 17, (5R,8S)-8,9,9-trimethyl-3-[(1-methylcyclopropyl)methyl]-5,6,7,8-tetrahydro-5,8-methanocinnoline], the IC50 was 1 pM. Work on Fc1ccc(-c2cc3c(nn2)C2CCC3C23CC3)c(C(F)(F)F)c1 (stereo not drawn) [Example 19, (5′RS,8′SR)-3′-[4-fluoro-2-(trifluoromethyl)phenyl]-5′,6′,7′,8′-tetrahydrospiro[cyclopropane-1,9′-[1′,2′]diaza[5′,8′]methanocinnoline]] yielded an IC50 of 2 pM. Cc1c(-c2cc3c(nn2)C2CCC3C23CC3)cnn1-c1ccccc1 (stereo not drawn) [Example 20, (5′RS,8′SR)-3′-(5-methyl-1-phenyl-1H-pyrazol-4-yl)-5′,6′,7′,8′-tetrahydrospiro[cyclopropane-1,9′-[1′,2′]diaza[5′,8′]methanocinnoline]] gave an IC50 of 89 pM. Work on Fc1ccc(-c2cc3c(nn2)C2CCC3C23CC3)c(Cl)c1 (stereo not drawn) [Example 21, (5′RS,8′SR)-3′-(2-chloro-4-fluorophenyl)-5′,6′,7′,8′-tetrahydrospiro[cyclopropane-1,9′-[1′,2′]diaza[5′,8′]methanocinnoline]] yielded an IC50 of 7 pM. Compound FC(F)(F)c1ccccc1-c1cc2c(nn1)C1CCC2C12CC2 (stereo not drawn) [Example 22, (5′RS,8′SR)-3′-[2-(trifluoromethyl)phenyl]-5′,6′,7′,8′-tetrahydrospiro[cyclopropane-1,9′-[1′,2′]diaza[5′,8′]methanocinnoline]] has an IC50 of 1 pM. Cc1c(-c2cc3c(nn2)C2CCC3C23CC3)cnn1C(C)(C)C (stereo not drawn) [Example 23, (5′RS,8′SR)-3′-(1-tert-butyl-5-methyl-1H-pyrazol-4-yl)-5′,6′,7′,8′-tetrahydrospiro[cyclopropane-1,9′-[1′,2′]diaza[5′,8′]methanocinnoline]] was tested, and the IC50 was 95 pM. With FC(F)(F)c1ccc(Cl)cc1-c1cc2c(nn1)C1CCC2C12CC2 (stereo not drawn) [Example 24, (5′RS,8′SR)-3′-[5-chloro-2-(trifluoromethyl)phenyl]-5′,6′,7′,8′-tetrahydrospiro[cyclopropane-1,9′-[1′,2′]diaza[5′,8′]methanocinnoline]] the IC50 was 40 pM. Work on Fc1ccc(-c2cc3c(nn2)C2CCC3CC2)c(C(F)(F)F)c1 [Example 25, 3-[4-fluoro-2-(trifluoromethyl)phenyl]-5,6,7,8-tetrahydro-5,8-ethanocinnoline] yielded an IC50 of 1 pM. Fc1ccc(-c2cc3c(nn2)C2CCC3C23CCCC3)c(C(F)(F)F)c1 (stereo not drawn) [Example 27, (5′RS,8′SR)-3′-[4-fluoro-2-(trifluoromethyl)phenyl]-5′,6′,7′,8′-tetrahydrospiro[cyclopentane-1,9′-[1′,2′]diaza[5′,8′]methanocinnoline]] was tested, and the IC50 was 1 pM.
